From paper PMC5735191, “Computational and biological profile of boronic acids for the detection of bacterial serine- and metallo-β-lactamases” (Scientific Reports, 2017)
“And” between values parts separate entries of the source, which are not always exact repeats. Equal values may be shown once.

Assays:
AmpC β-lactamase = target: T1, AmpC β-lactamase (Pseudomonas aeruginosa, UniProt P24735); experiment: Enzyme inhibition assay (spectrophotometric, cephalothin reporter substrate); format: biochemical, P. aeruginosa; conditions: mean of two replicates, five inhibitor concentrations, Dixon plot, 100 μM cephalothin, pH 7.5, 25 °C
T1 construct: made in house; host or cells: E. coli BL21(DE3), plasmid pET-9aAmpC
Experimental: (§1) To obtain a well-characterized inhibition profile for each selected boronic acids against each BLs in the panel, the compounds were tested for inhibitory activity. The protein panel included clinically- and epidemiologically-relevant β-lactamases, representatives of each structural class (A to D), as mentioned above. Each BL was overexpressed in E. coli, purified by chromatography and characterized as already reported. (SI, Table S1)[40]–[45].
(§2) Reactions were initiated with addition of BL enzyme (the concentration values for each BL enzyme into the SI, Table S1 have been reported).
(§3) From the resulting inhibition percentages at each different inhibitor concentration and, assuming a competitive inhibition for the boronic compounds panel, it was possible to calculate the IC50 values from the Dixon plot 1/V vs [I], using the equation IC50 = […][61], where v0 is the rate of hydrolysis of the reporter substrate (v0 being the rate measured in the absence of inhibitor), q the y axis intercept and m the slope of the resulting linear regression.

CTX-M-15 = target: T2, CTX-M-15 (Escherichia coli, UniProt Q9EXV5); experiment: as above; format: biochemical; conditions: IC50 CTX-M-15, mean of two replicates, five inhibitor concentrations, Dixon plot; pH 7.5, 25 °C
T2 construct: made in house; host or cells: E. coli BL21(DE3), pET-9a derivative (pET-CTX-M-15)
Experimental: as §1, §2, §3

OXA-24 = target: T3, OXA-24 (Acinetobacter baumannii, UniProt Q8RLA6); experiment: as above; format: biochemical
T3 construct: GST (N, cleaved yes); made in house; host or cells: E. coli DH5α, pGEX-2T-OXA-24
Experimental: as §1, §2, §3

KPC-2 = target: T4, KPC-2 (Klebsiella pneumoniae, UniProt Q9F663); experiment: as above; format: biochemical; conditions: mean of two replicates, five inhibitor concentrations, Dixon plot; pH 7.5, 25 °C
T4 construct: made in house; host or cells: E. coli BL21(DE3), pET9-KPC2
Experimental: as §1, §2

[1] = system: E. aerogenes clinical isolate, overproduction chromosomal AmpC; experiment: Susceptibility testing (MIC), synergy with ceftazidime; format: cell-based; conditions: antibiotic:inhibitor 1:1 (w/w)
Experimental: (§4) The minimum inhibitory concentrations (MICs), for CAZ and CTX alone and in combination with boronic acids against resistant strains were determined (Table 2a,b).
(§5) Susceptibility testing was performed in Mueller Hinton broth and interpreted following the guidelines of the National Committee for Clinical Laboratory Standards[70]. To test the inhibitory activity, the compounds were dissolved in DMSO, 50% in water, and further dilutions were performed using growth medium. In all cases tests were performed at a final DMSO concentration below 5%, avoiding unwanted DMSO inhibition effect on strains growth (blank test control with DMSO were performed). The MICs of cefotaxime and ceftazidime alone and in association were determined against several relevant Gram-negative clinical isolates, selected from the pathogen collection of the Spanish Network for Research in Infectious Pathology (REIPI; Spain). The selection was based on strains capability of producing β-lactamases of interest for the present study. The antibiotic:inhibitor ratio was 1:1 (w/w).

[2] = system: E. cloacae clinical isolate, overproduction chromosomal AmpC; experiment: as above; format: cell-based; conditions: overproduction chromosomal AmpC, antibiotic:inhibitor 1:1 (w/w)
Experimental: as §4, §5

[3] = system: E. coli clinical isolate, overproduction chromosomal AmpC; experiment: as above; format: cell-based; conditions: antibiotic:inhibitor 1:1 (w/w)
Experimental: as §4, §5

[4] = system: E. coli clinical isolate, plasmidic AmpC - DHA1; experiment: as above; format: cell-based; conditions: E. coli, plasmidic AmpC - DHA1; antibiotic:inhibitor 1:1 (w/w)
Experimental: as §4, §5

[5] = system: P. aeruginosa 12, overproduction chromosomal AmpC; experiment: as above; format: cell-based; conditions: antibiotic:inhibitor 1:1 (w/w)
Experimental: as §4, §5

[6] = system: P. aeruginosa 120, overproduction chromosomal AmpC; experiment: as above; format: cell-based; conditions: antibiotic:inhibitor 1:1 (w/w)
Experimental: as §4, §5

[7] = system: P. aeruginosa 148, overproduction chromosomal AmpC; experiment: as above; format: cell-based; conditions: antibiotic:inhibitor 1:1 (w/w)
Experimental: as §4, §5

[8] = system: P. aeruginosa 199, overproduction chromosomal AmpC; experiment: as above; format: cell-based; conditions: antibiotic:inhibitor 1:1 (w/w)
Experimental: as §4, §5

[9] = system: P. aeruginosa 49, overproduction chromosomal AmpC; experiment: as above; format: cell-based; conditions: antibiotic:inhibitor 1:1 (w/w)
Experimental: as §4, §5

[10] = system: CTX-M-15 E. coli clinical isolate; experiment: Susceptibility testing (MIC), synergy with cefotaxime; format: cell-based
Experimental: as §4, §5

[11] = system: KPC-2 K. pneumoniae clinical isolate; experiment: as above; format: cell-based; conditions: KPC-2 K. pneumoniae; antibiotic:inhibitor 1:1 (w/w)
Experimental: as §4, §5

[12] = system: NDM-1 E. coli clinical isolate; experiment: as above; format: cell-based; conditions: antibiotic:inhibitor 1:1 (w/w)
Experimental: as §4, §5

[13] = system: OXA-24 A. baumanii clinical isolate; experiment: as above; format: cell-based; conditions: antibiotic:inhibitor 1:1 (w/w)
Experimental: as §4, §5

[14] = system: VIM-2 P. aeruginosa clinical isolate; experiment: as above; format: cell-based; conditions: antibiotic:inhibitor 1:1 (w/w)
Experimental: as §4, §5

VIM-2 [15] = target: T5, VIM-2 (Escherichia coli, UniProt Q5U7L7); experiment: Enzyme inhibition assay (spectrophotometric, cephalothin reporter substrate); format: biochemical; set-up: made in house; host or cells: E. coli BL21(DE3), pET9-VIM-2; conditions: mean of two replicates, five inhibitor concentrations, Dixon plot; pH 7.5, 25 °C
Experimental: as §1, §2

NDM-1 [16] = target: T6, NDM-1 (Klebsiella pneumoniae, UniProt C7C422); experiment: as above; format: biochemical; set-up: His-tag; made in house; host or cells: E. coli BL21(DE3), pET-15-NDM-1; conditions: mean of two replicates, five inhibitor concentrations, Dixon plot; pH 7.5, 25 °C
Experimental: as §1, §2

VIM-2 [17] = target: T5, VIM-2
Source text: VIM-2. The VIM-2 metallo-β-lactamase was purified from a 2 L culture of BL21-DE3/pET9-VIM-
2 as previously described3. Briefly, the protein was purified from the culture supernatant,
concentrated by ultrafiltration, and purified using two anion exchange chromatography steps,
followed by a final gel filtration step, as described. β-lactamase activity was monitored using the
The authenticity and purity of the final protein sample was
confirmed by ESI-MS and SDS-PAGE.
Protein purification methods and kinetic profile characterization details: the Table reports the
step-by-step purification procedure for each β-lactamase protein, indicating the β-lactam substrate
used for kinetic profile characterization (kcat, Km and specificity constant evaluation) and the
proper concentration of enzyme used in the assay for each BL class.

NDM-1 [18] = target: T6, NDM-1
Experimental: 24h at 37 °C. Cells were recovered by centrifugation (4,500 rpm, 4 °C, 20 min) and resuspended in
200 mL of buffer A (10 mM Hepes, 0.15 M NaCl, pH7.5). The cells were lyzed by sonication
(Sonopuls HD-2200) and the cell debris removed by centrifugation (12,000 rpm, 4 °C, 30 min) in
the presence of Protease Inhibitor Complete (Roche). The clarified sample was loaded onto a 5mL
HisTrap Fast Flow column (GE Healthcare). The protein was eluted with imidazole (350 mM in
buffer A) The active fractions were pooled, concentrated by ultrafiltration (Amicon Ultra 15, MW
cut-off, 10 kDa), desalted (Hi Prep 26/10 Desalting) in buffer B (20mM triethanolamine, 50 µM
ZnSO4, pH 7.2) to remove imidazole. β -lactamase activity was monitored using the hydrolysis rate
The authenticity and purity of the final protein sample was confirmed by

T6 sequence (C7C422 29-270 limits assumed): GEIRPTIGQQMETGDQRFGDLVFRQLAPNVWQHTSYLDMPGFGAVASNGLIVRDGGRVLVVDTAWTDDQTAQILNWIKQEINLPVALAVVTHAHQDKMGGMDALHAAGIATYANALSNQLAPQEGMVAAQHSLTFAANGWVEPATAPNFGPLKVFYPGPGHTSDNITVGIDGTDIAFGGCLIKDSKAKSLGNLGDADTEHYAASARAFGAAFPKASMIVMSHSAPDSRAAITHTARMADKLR
T4 sequence (Q9F663 25-293 limits assumed): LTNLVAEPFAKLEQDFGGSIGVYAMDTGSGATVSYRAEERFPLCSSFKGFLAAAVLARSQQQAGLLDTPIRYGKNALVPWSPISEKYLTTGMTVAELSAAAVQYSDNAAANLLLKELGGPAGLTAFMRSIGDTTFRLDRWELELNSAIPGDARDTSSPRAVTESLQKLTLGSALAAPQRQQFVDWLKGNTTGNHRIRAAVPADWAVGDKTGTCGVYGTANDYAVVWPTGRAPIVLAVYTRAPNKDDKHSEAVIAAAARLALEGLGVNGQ
T2 sequence (Q9EXV5 entry or part of it): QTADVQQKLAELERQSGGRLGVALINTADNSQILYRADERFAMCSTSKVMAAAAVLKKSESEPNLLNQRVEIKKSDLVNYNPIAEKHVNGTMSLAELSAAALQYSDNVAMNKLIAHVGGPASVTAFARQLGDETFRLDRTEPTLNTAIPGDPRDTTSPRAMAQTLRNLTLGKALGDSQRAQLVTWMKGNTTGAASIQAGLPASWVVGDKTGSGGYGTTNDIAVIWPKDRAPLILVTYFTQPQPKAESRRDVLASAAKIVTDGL
T3 sequence (Q8RLA6 22-275 limits assumed): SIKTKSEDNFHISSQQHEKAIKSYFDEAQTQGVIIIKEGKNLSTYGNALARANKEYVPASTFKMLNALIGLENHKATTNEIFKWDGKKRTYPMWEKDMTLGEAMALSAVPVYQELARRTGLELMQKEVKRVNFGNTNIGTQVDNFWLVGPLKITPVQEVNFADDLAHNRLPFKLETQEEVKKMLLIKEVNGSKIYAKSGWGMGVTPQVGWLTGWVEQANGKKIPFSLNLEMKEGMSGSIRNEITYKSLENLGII
T1 sequence (P24735 27-397): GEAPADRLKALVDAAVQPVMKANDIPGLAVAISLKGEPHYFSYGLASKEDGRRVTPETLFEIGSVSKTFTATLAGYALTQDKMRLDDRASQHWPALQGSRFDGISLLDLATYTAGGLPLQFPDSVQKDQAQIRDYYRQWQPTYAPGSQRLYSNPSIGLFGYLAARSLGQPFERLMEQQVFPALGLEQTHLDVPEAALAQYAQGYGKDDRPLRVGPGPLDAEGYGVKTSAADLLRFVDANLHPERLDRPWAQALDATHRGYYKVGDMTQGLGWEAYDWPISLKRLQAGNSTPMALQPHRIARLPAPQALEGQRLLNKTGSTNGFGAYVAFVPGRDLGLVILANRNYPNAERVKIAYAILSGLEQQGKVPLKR

CC1(C)OB(c2cc3cccc(C(=O)O)c3s2)OC1(C)C [Compound 5]
IC50 (AmpC β-lactamase): 1.3 ± 0.01 µM | IC50 (CTX-M-15): 9.4 ± 3.48 µM | IC50 (OXA-24): 23 ± 4.38 µM | IC50 (KPC-2): 5.38 µM and 8.2 µM | MIC of ceftazidime (CAZ) in combination with compound [1]: 32 µg/mL | MIC of ceftazidime (CAZ) in combination with compound [2]: 64 µg/mL | MIC of ceftazidime (CAZ) in combination with compound [3]: 64 µg/mL | MIC of ceftazidime (CAZ) in combination with compound [4]: 512 µg/mL | MIC of ceftazidime (CAZ) in combination with compound [5]: 16 µg/mL | MIC of ceftazidime (CAZ) in combination with compound [6]: 4 µg/mL | MIC of ceftazidime (CAZ) in combination with compound [7]: 32 µg/mL | MIC of ceftazidime (CAZ) in combination with compound [8]: 16 µg/mL | MIC of ceftazidime (CAZ) in combination with compound [9]: 32 µg/mL | MIC of cefotaxime (CTX) in combination with compound ([10]; CTX-M-15 E. coli, antibiotic:inhibitor 1:1 (w/w)): 16 µg/mL | MIC reduction of CTX (fold) ([10]; E. coli producing CTX-M-15, CTX combination): 4 fold | MIC of cefotaxime (CTX) in combination with compound [11]: 4 µg/mL | MIC of cefotaxime (CTX) in combination with compound [12]: 1024 µg/mL | MIC of cefotaxime (CTX) in combination with compound [13]: 16 µg/mL | MIC of cefotaxime (CTX) in combination with compound [14]: 1024 µg/mL | IC50 (VIM-2 [15]): 27.7 ± 3.65 µM | IC50 (NDM-1 [16]): 32.4 ± 7.14 µM

C[C@@H](O)[C@H]1C(=O)N2C(C(=O)O)=C(SCCN=CN)C[C@H]12 [Imipenem, imipenem]
kcat (VIM-2 [17]; β-lactam substrate of VIM-2): 8 ± 2 s⁻¹ | Km (VIM-2 [17]; β-lactam substrate of VIM-2, enzyme 0.043 µM): 11 ± 3 µM | kcat (NDM-1 [18]; β-lactam substrate of NDM-1): 520 ± 84 s⁻¹ | Km (NDM-1 [18]; β-lactam substrate of NDM-1, enzyme 0.021 µM): 58 ± 6 µM
